Assay results from US8735423B2, “Bicyclic compounds as α4β2 nicotinic acetylcholine receptor ligands” (priority 2009, dated 2014).
Where two headings read alike, the source gives them in different places.

Experiments:
[1] = target: T1, recombinant human α4β2 nicotinic acetylcholine receptor (Homo sapiens, UniProt P17787+P43681); experiment: Determination of IC50 and Kb values, aequorin luminescence assay in CHO cells; type: cell-based; conditions: antagonist mode, fixed concentration of agonist epibatidine, CHO cells, luminescence; read-out: Kb
T1 construct: expressed in transfected cells
Method: Determination of IC50 and Kb Values for Nicotinic Acetylcholine α4β2 Receptor Ligands
A stable CHO cell line expressing recombinant human α4β2 nicotinic acetylcholine receptor transiently expressing aequorin protein was used for cell-based assay. The assay offers a non-radioactive based approach to determine binding of a compound to ligand gated ion channels. In this specific assay, the level of intracellular calcium which is modulated by activation or inhibition of the channel is measured. Both the channel and aequorin genes are expressed at high level under the control of powerful CMV promotor.
The above cells were grown in 96 well clear bottom white plates in Hams F12 medium containing 10% fetal bovine serum (FBS). Prior to the addition of compounds and/or agonist, cells were serum starved for six hours. Coelentarazine (a prosthetic group for aequorin protein) was added in the medium containing 0.1% dialyzed serum and incubated overnight at 27° C. Cells were washed with assay buffer and increasing concentration of the test compound or standard were added to the plate for antagonist mode. A fixed concentration of the agonist (eipbatidine) was injected into the plate and luminescence was measured for 10 seconds. For evaluation of the compound in agonist mode, increasing concentration of the standard or test compound was injected and the luminescence was measured. Luminescence units were plotted against the compound concentrations using Graphpad software. IC50 values of the compounds were defined as the concentration required in reducing the luminescent units by 50%. The Kb values were calculated by feeding the concentration of the agonist used in the assay and its EC50 value in the same software.
Literature References: Karadsheh M. S., Shah M. S., Tang X., Macdonald R. L. and Stitzel J. A. Functional characterization of mouse α4β2 nicotinic acetylcholine receptors stably expressed in HEK293T cells. J. Neurochem. 2004, 91, 1138-1150.

[2] = Rodent Brain Penetration Study; conditions: in vivo, Wistar rat male, P.O, read-out: Steady State Brain Penetration (Cb/Cp)
Method: Rodent Brain Penetration Study
Male Wistar rats (230-280 grams) obtained from NIN (National Institute of Nutrition, Hyderabad, India) was used as an experimental animal. Three animals were housed in each cage. Animals were given water and food ad libitum throughout the experiment, and maintained on a 12 hours light/dark cycle.
NCE compound was dissolved in water and administered orally. At Tmax (0.5, 1.0 and 2.0) animals were sacrificed to collect the plasma and brain tissue and was homogenized. Plasma and Brain was stored frozen at −20° C. until analysis. The concentrations of the NCE compound in plasma and Brain were determined using LC-MS/MS method.
The NCE compounds were quantified in plasma and brain homogenate by validated LC-MS/MS method using solid phase extraction technique. NCE compounds were quantified in the calibration range of 1-500 ng/mL in plasma and brain homogenate. Study samples were analyzed using calibration samples in the batch and quality control samples spread across the batch. Extents of brain-blood ratio were calculated (Cb/Cp).

Male Sprague Dawley rats = experiment: DRL-72s model of animal depression; type: in vivo; conditions: rat
Method: The antidepressant properties of compounds of this invention were evaluated using a model of animal depression: the DRL-72s model. Male Sprague Dawley rats were used as experimental animals. Rats are trained to lever press for a 4″ access to 0.025 mL of water for each correct response during daily 60 minute sessions. All testing takes place on weekdays only. At the beginning of each session, the house light is illuminated and remains lit until the session ends. No other stimuli are presented during testing. After successful lever press training, rats are then required to respond under a DRL-24 second schedule, where only lever presses that are separated by 24 seconds are reinforced. Upon stable responding on a DRL-24 second schedule (5-10 sessions), rats are trained on a DRL-72 second schedule until responding stabilizes at approximately 15% efficiency (approx 25-35 sessions). Specifically, rats receive a reinforcer for each response that is emitted at least 72 seconds after the previous response (IRT). […] Efficiency is recorded as number of reinforced responses÷total number of responses. After stable baseline responding is achieved, defined as responding for 4 consecutive sessions with no more than 10% variability, animals begin drug testing. Animals receive drug no more than 1× per week.

Male Wistar rats = experiment: Acute Food Intake Study (animal model of hyperphagia); type: in vivo; conditions: rat, oral
Method: The appetite suppressing properties of compounds of this invention were studied using an animal model of hyperphagia.
Male Wistar rats (200-210 grams) obtained from Raj Biotech, India were used as experimental animals. The experiment consisted of 6 days. The rats were adapted to the 18 hour fasting and 6 hour feeding pattern. The animals were housed in a group of three in the cages provided with the fasting grills and were fasted for 18 hours. After 18 hour fasting the rats were separated and placed individually in a cage. Weighed amount of feed was provided to rats for 6 hour and the feed intake at 1, 2, 4 and 6 hours was recorded. Again the rats were regrouped and fasted for 18 hour. The above procedure was followed for 5 days. The average cumulative food intake by the rats on the last 3 days was calculated. Animals were randomised on the basis of their last three days food intake.
One group of 8 rats received vehicle (2 mL/Kg) orally and another set of animals received compound of the formula (I) orally. Then the rats were given access to food and the food intake at 1, 2, 4 and 6 hours was recorded. The food intake by the rats treated with test compound was compared with the vehicle treated group by using students ‘t’ test.
Following compound shown positive effects indicating the suppression of food intake i.e. hypophagia like effects.

High Fat Fed Rats = experiment: Effect of Test Compounds on Body Weight Gain in High Fat Fed Rats; type: in vivo, rat; conditions: high fat diet fed Sprague Dawley rats, oral for 14 days
Description: Effect of Test Compounds on Body Weight Gain in High Fat Fed Rats
The body weight gain suppressing properties of compounds of this invention were studied using a animal model of obesity.
Male Sprague Dawley rats (150-160 grams) obtained from Reliance Life Sciences, India were used as experimental animals. Rats were fed with control diet (normal pellet diet) and lard based high fat diet (45% kcal diet) for 7-8 weeks. High fat diet fed animals was randomized according to their body weights. The animals were housed in a group of 3-4 per cage. One group of 10 rats received vehicle (2 mL/Kg) orally and another set of animals received compound of the formula (I) orally for 14 days. Body weight of the animals was recorded for first three consecutive days then it was recorded twice weekly. Weighed amount of food was given to the animals and food intake was recorded every 24 hour for the entire study period.
Following compound shown positive effects indicating the decrease in the body weight gain.

T1 sequence (P43681 29-627): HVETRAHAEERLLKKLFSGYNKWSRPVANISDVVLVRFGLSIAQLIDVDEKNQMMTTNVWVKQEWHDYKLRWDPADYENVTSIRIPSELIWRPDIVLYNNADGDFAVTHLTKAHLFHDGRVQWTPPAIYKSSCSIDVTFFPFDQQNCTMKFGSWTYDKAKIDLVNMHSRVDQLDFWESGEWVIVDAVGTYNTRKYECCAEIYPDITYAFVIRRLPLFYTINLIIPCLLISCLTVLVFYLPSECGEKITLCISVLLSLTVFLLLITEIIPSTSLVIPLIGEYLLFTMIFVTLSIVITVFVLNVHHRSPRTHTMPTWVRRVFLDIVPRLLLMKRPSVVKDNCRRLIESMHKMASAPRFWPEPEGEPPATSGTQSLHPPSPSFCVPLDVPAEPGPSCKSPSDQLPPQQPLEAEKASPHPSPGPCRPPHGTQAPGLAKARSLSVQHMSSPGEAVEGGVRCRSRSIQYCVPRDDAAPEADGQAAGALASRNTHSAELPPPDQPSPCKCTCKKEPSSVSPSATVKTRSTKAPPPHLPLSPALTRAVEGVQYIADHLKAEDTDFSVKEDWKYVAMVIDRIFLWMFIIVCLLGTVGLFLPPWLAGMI
T1 sequence (P17787 26-502): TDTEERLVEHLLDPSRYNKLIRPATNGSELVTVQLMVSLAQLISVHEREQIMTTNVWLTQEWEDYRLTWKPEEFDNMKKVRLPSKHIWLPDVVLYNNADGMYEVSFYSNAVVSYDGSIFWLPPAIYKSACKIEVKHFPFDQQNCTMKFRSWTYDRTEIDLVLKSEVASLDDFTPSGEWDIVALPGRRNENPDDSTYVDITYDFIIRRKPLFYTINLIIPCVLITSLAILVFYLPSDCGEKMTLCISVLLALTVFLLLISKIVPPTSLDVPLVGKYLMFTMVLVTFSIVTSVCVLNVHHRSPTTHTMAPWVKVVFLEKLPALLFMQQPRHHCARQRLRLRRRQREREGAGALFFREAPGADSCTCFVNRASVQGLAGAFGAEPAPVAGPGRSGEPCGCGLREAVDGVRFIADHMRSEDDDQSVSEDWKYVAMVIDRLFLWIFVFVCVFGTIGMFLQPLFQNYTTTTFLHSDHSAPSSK

`Cl.Cl.Clc1cncc(OCC2CC3CC3N2)c1` (stereo not drawn) [Example 7, 3-(5-Chloropyridin-3-yloxymethyl)-2-azabicyclo[3.1.0]hexane dihydrochloride] showed a Kb [1] of 0.0178 µM and a Kp ([2]; 5 mg/kg) of 3.79 ± 0.66.
In the case of `Cl.c1cncc(OCC2CC3CC3N2)c1` (stereo not drawn) [Example 1, 3-(Pyridin-3-yloxymethyl)-2-azabicyclo[3.1.0]hexane hydrochloride], the Kb [1] is reported as 0.0071 µM, the Kp ([2]; 15 mg/kg) is reported as 3.8 ± 0.289 and the “Dose mg/kg, p.o. (DRL-72s)” value (Male Sprague Dawley rats) is reported as “≦10 mg/kg, p.o”. The Inference (Male Wistar rats) was “Active”, the “% Suppression of food intake compared to vehicle” value (from here on “% Suppression of food intake”) (Male Wistar rats; 1 Hour) was 32.25% and the “% Suppression of food intake” value (Male Wistar rats; 2 Hour) was 25.40%. For the same molecule, the “% Suppression of food intake” value (Male Wistar rats; 4 Hour) was 23.08%, the “% Suppression of food intake” value (Male Wistar rats; 6 Hour) was 15.37% and the “% Reduction in body weight gain compared to vehicle (Day 14)” value (High Fat Fed Rats) was 3.6%. For the same molecule, the Inference (High Fat Fed Rats) was “Active”.
